Test systems include Acinetobacter baumannii; Pseudomonas aeruginosa; Shigella dysenteriae.
Common to all, as to assay: ≥ marks a high value that may be exact or a test limit, other limits are often not marked, values filed in µg/mL are converted to µM
Assay [1] concerns Acinetobacter baumannii KCTC 2508.
In assay [2] the test system is Bacillus subtilis KCTC 1918.
Assay [3] concerns Candida albicans TIMM 1768.
For assay [4], the system named is Proteus vulgaris KCTC 2433.
In assay [5] the test system is Saccharomyces cerevisiae KCTC 7296.
The subject of assay [6] is Salmonella typhimurium KCTC 1926.
The test system of assay [7] is Staphylococcus aureus KCTC 1621.
Assay [8] concerns Trichosporon beigelii KCTC 7707.
Assay [9] relates to Acinetobacter calcoaceticus.
Assay [10] concerns Candida albicans ATCC 2002.
The subject of assay [11] is Escherichia coli ATCC 25922.
In assay [12] the test system is Staphylococcus aureus ATCC 2592.
Assay [13] has as its system Bacillus subtilis ATCC 6633.
Assay [14] concerns Escherichia coli ATCC 10536.
For assay [15], the system named is Escherichia coli DH5alpha.
Assay [16] has as its system Staphylococcus aureus ATCC 9144.
Assay [17] relates to Bacillus subtilis IFO 3513.
Assay [18] relates to Escherichia coli IFO 12734.
In assay [19] the test system is Staphylococcus aureus IFO 12732.

≈ marks a conversion by molar mass, not a printed value.

The term MIC denotes the smallest concentration in the dilution series that meets the test's criterion for growth inhibition.

Consider `CC[C@H](C)[C@H](NC(=O)CNC(=O)[C@H](CC(C)C)NC(=O)[C@H](CCCN=C(N)N)NC(=O)[C@H](CCCCN)NC(=O)[C@H](Cc1ccccc1)NC(=O)[C@@H](NC(=O)[C@H](CCCCN)NC(=O)[C@H](CCCCN)NC(=O)[C@H](C)N)C(C)C)C(=O)NCC(=O)N[C@@H](C)C(=O)N[C@H](C(=O)N[C@@H](CC(C)C)C(=O)N[C@@H](CCCCN)C(=O)N[C@H](C(=O)N[C@@H](CC(C)C)C(=O)N[C@H](C(=O)N[C@H](C(=O)NCC(=O)O)[C@@H](C)O)[C@@H](C)O)C(C)C)C(C)C` [AKKVFKRLGIGAVLKVLTTG], for which the MIC in assay [1] came out at 6.25 µM (≈ 13.1 µg/mL); against Acinetobacter baumannii it was 6.25 µM (≈ 13.1 µg/mL); in [2], 0.78 µM (≈ 1.64 µg/mL); in [3], 12.5 µM (≈ 26.2 µg/mL); in assay [4] it was 6.25 µM (≈ 13.1 µg/mL); in assay [5], 12.5 µM (≈ 26.2 µg/mL). The MIC stood at 0.39 µM (≈ 0.819 µg/mL) in assay [6], 1.56 µM (≈ 3.28 µg/mL) in [7] and 17.7 µM (≈ 37.1 µg/mL) in assay [8].

`CC[C@H](C)[C@H](NC(=O)CNC(=O)[C@H](CC(C)C)NC(=O)[C@H](CCCN=C(N)N)NC(=O)[C@H](CCCCN)NC(=O)[C@H](Cc1ccccc1)NC(=O)[C@@H](NC(=O)[C@H](CCCCN)NC(=O)[C@H](CCCCN)NC(=O)[C@H](C)N)C(C)C)C(=O)NCC(=O)N[C@@H](C)C(=O)N[C@H](C(=O)N[C@@H](CC(C)C)C(=O)N[C@@H](Cc1c[nH]c2ccccc12)C(=O)N[C@H](C(=O)N[C@@H](CC(C)C)C(=O)N[C@H](C(=O)N[C@@H](Cc1c[nH]c2ccccc12)C(=O)NCC(=O)O)[C@@H](C)O)C(C)C)C(C)C` [AKKVFKRLGIGAVLWVLTWG]: the MIC in assay [2] was 6.25 µM (≈ 14 µg/mL); in assay [3] it was no less than 50 µM; in assay [4], 3.12 µM (≈ 7 µg/mL); in assay [5], no less than 50 µM; in assay [6] it was 0.78 µM (≈ 1.75 µg/mL); in [7], 3.12 µM (≈ 7 µg/mL). The same compound displayed an MIC in assay [8] of no less than 50 µM.

Take `CC[C@H](C)[C@H](NC(=O)[C@@H]1CCCN1C(=O)[C@H](Cc1ccccc1)NC(=O)[C@@H](N)Cc1ccccc1)C(=O)N[C@H](C(=O)NCC(=O)N[C@@H](CCCCN)C(=O)N[C@@H](CC(C)C)C(=O)N[C@@H](CC(C)C)C(=O)N[C@@H](CO)C(N)=O)C(C)C` [FFPIVGKLLS]: the MIC in assay [9] is no less than 66.9 µM; in assay [10], 13.4 µM (≈ 15 µg/mL); in assay [11], 26.8 µM (≈ 30 µg/mL); in the assay with Pseudomonas aeruginosa, 22.3 µM (≈ 25 µg/mL); against Shigella dysenteriae it was no less than 53.6 µM; in assay [12] it was 13.4 µM (≈ 15 µg/mL).

For the compound `CC[C@H](C)[C@H](NC(=O)[C@H](CCCN=C(N)N)NC(=O)[C@@H](NC(=O)[C@@H](NC(=O)[C@@H]1CCCN1C(=O)[C@@H](NC(=O)[C@@H](NC(=O)[C@H](C)NC(=O)[C@@H]1CCCN1C(=O)CNC(=O)[C@H](Cc1ccc(O)cc1)NC(=O)[C@H](CCCCN)NC(=O)[C@H](CCCCN)NC(=O)[C@H](Cc1c[nH]c2ccccc12)NC(=O)[C@H](C)NC(=O)[C@H](CCCN=C(N)N)NC(=O)[C@H](CC(C)C)NC(=O)[C@H](C)NC(=O)[C@H](CCCCN)NC(=O)[C@H](CCCN=C(N)N)NC(=O)CNC(=O)[C@H](CC(C)C)NC(=O)[C@H](CO)NC(=O)[C@H](CCCN=C(N)N)NC(=O)[C@H](C)NC(=O)CNC(=O)CN)[C@@H](C)CC)C(C)C)[C@@H](C)CC)[C@@H](C)CC)C(N)=O` [GGARSLGRKALRAWKKYGPAIVPIIRI], the MIC in [13] stood at 1.7 µM (≈ 5.01 µg/mL); in [14], 2.6 µM (≈ 7.66 µg/mL); in assay [15], 2.6 µM (≈ 7.66 µg/mL); in assay [16], 3.9 µM (≈ 11.5 µg/mL).

Regarding `CC[C@H](C)[C@H](NC(=O)[C@H](CCCN=C(N)N)NC(=O)[C@@H](NC(=O)[C@@H](NC(=O)[C@@H]1CCCN1C(=O)[C@@H](NC(=O)[C@@H](NC(=O)[C@@H](NC(=O)[C@@H]1CCCN1C(=O)CNC(=O)[C@H](Cc1ccc(O)cc1)NC(=O)[C@H](CCCCN)NC(=O)[C@H](CCCCN)NC(=O)[C@H](Cc1c[nH]c2ccccc12)NC(=O)[C@H](C)NC(=O)[C@H](CCCN=C(N)N)NC(=O)[C@H](CC(C)C)NC(=O)[C@H](C)NC(=O)[C@H](CCCCN)NC(=O)[C@H](CCCN=C(N)N)NC(=O)CNC(=O)[C@H](CC(C)C)NC(=O)[C@H](CO)NC(=O)[C@H](CCCN=C(N)N)NC(=O)[C@H](C)NC(=O)CNC(=O)CN)[C@@H](C)CC)[C@@H](C)CC)C(C)C)[C@@H](C)CC)[C@@H](C)CC)C(N)=O` [GGARSLGRKALRAWKKYGPIIVPIIRI], the MIC in assay [13] was found to be 1.5 µM (≈ 4.48 µg/mL); in assay [14], 2.5 µM (≈ 7.47 µg/mL); in assay [15], 2.7 µM (≈ 8.07 µg/mL); in assay [16] it was 3.8 µM (≈ 11.4 µg/mL).

Regarding `CC[C@H](C)[C@H](N)C(=O)N[C@@H](CC(C)C)C(=O)N1CCC[C@H]1C(=O)N[C@@H](CC(C)C)C(=O)N[C@@H](CCCCN)C(=O)N[C@@H](CC(C)C)C(=O)N1CCC[C@H]1C(=O)N[C@@H](Cc1c[nH]c2ccccc12)C(=O)N[C@@H](Cc1c[nH]c2ccccc12)C(=O)N1CCC[C@H]1C(=O)N[C@@H](Cc1c[nH]c2ccccc12)C(=O)N[C@@H](CCCN=C(N)N)C(=O)N[C@@H](CCCN=C(N)N)C(N)=O` [ILPLKLPWWPWRR], the MIC in assay [17] came out at 1.78 µM (≈ 3.13 µg/mL); in assay [18], 28.4 µM (≈ 50 µg/mL); in assay [19] it was 1.78 µM (≈ 3.13 µg/mL).

As to `CC[C@H](C)[C@H](N)C(=O)N[C@@H](CC(C)C)C(=O)N1CCC[C@H]1C(=O)N[C@@H](Cc1c[nH]c2ccccc12)C(=O)N[C@@H](CCCCN)C(=O)N[C@@H](Cc1c[nH]c2ccccc12)C(=O)N1CCC[C@H]1C(=O)N[C@@H](Cc1c[nH]c2ccccc12)C(=O)N[C@@H](CC(C)C)C(=O)N1CCC[C@H]1C(=O)N[C@@H](Cc1c[nH]c2ccccc12)C(=O)N[C@@H](CCCCN)C(=O)N[C@@H](CCCCN)C(N)=O` [ILPWKWPWLPWKK], the results for the MIC in assay [17], in assay [18] and in assay [19] were 1.76 µM (≈ 3.13 µg/mL), 28.1 µM (≈ 50 µg/mL) and 1.76 µM (≈ 3.13 µg/mL), respectively.

In the case of `CC[C@H](C)[C@H](N)C(=O)N[C@@H](CC(C)C)C(=O)N1CCC[C@H]1C(=O)N[C@@H](Cc1c[nH]c2ccccc12)C(=O)N[C@@H](CCCCN)C(=O)N[C@@H](Cc1c[nH]c2ccccc12)C(=O)N1CCC[C@H]1C(=O)N[C@@H](Cc1ccc(O)cc1)C(=O)N[C@@H](CC(C)C)C(=O)N1CCC[C@H]1C(=O)N[C@@H](Cc1c[nH]c2ccccc12)C(=O)N[C@@H](CCCN=C(N)N)C(=O)N[C@@H](CCCN=C(N)N)C(N)=O` [ILPWKWPYLPWRR], the MIC amounted to 1.73 µM (≈ 3.13 µg/mL) in [17], 13.8 µM (≈ 25 µg/mL) in assay [18] and 3.45 µM (≈ 6.25 µg/mL) in assay [19].

Take `CC[C@H](C)[C@H](NC(=O)[C@@H](NC(=O)[C@@H](N)CCCNC(=N)N)[C@@H](C)CC)C(=O)N[C@@H](CC(=O)O)C(=O)N[C@@H](CC(C)C)C(=O)N[C@@H](CC(C)C)C(=O)N[C@@H](Cc1c[nH]c2ccccc12)C(=O)N[C@@H](CCCNC(=N)N)C(=O)N[C@H](C(=O)N[C@@H](CCCNC(=N)N)C(=O)N[C@@H](CCCNC(=N)N)C(=O)N1CCC[C@H]1C(=O)N[C@@H](CCC(N)=O)C(=O)N[C@@H](Cc1c[nH]c2ccccc12)C(=O)N1CCC[C@H]1C(=O)N[C@@H](CCCCN)C(=O)N[C@@H](Cc1ccccc1)C(=O)N[C@H](C(=O)N[C@H](C(=O)N[C@H](C(=O)N[C@@H](Cc1c[nH]c2ccccc12)C(=O)N[C@H](C(=O)N[C@H](C=O)CCCNC(=N)N)C(C)C)C(C)C)[C@@H](C)O)C(C)C)C(C)C` [RIIDLLWRVRRPQWPKFVTVWVR]: the MIC in [3], in [5] and in assay [8] was 14.1 µM (≈ 42.5 µg/mL) in each case.
